The text below walks through data of patent publication US11370776B2, “Sulfonylureas and sulfonylthioureas as NLRP3 inhibitors” (Inflazome Limited, priority 2017, dated 2022).

SMILES strings stand for the structures. Structures can show the parent of a compound that is named as a salt. Some results are limits rather than exact numbers.

Chain of NLRP3 (Q96P20 whole entry): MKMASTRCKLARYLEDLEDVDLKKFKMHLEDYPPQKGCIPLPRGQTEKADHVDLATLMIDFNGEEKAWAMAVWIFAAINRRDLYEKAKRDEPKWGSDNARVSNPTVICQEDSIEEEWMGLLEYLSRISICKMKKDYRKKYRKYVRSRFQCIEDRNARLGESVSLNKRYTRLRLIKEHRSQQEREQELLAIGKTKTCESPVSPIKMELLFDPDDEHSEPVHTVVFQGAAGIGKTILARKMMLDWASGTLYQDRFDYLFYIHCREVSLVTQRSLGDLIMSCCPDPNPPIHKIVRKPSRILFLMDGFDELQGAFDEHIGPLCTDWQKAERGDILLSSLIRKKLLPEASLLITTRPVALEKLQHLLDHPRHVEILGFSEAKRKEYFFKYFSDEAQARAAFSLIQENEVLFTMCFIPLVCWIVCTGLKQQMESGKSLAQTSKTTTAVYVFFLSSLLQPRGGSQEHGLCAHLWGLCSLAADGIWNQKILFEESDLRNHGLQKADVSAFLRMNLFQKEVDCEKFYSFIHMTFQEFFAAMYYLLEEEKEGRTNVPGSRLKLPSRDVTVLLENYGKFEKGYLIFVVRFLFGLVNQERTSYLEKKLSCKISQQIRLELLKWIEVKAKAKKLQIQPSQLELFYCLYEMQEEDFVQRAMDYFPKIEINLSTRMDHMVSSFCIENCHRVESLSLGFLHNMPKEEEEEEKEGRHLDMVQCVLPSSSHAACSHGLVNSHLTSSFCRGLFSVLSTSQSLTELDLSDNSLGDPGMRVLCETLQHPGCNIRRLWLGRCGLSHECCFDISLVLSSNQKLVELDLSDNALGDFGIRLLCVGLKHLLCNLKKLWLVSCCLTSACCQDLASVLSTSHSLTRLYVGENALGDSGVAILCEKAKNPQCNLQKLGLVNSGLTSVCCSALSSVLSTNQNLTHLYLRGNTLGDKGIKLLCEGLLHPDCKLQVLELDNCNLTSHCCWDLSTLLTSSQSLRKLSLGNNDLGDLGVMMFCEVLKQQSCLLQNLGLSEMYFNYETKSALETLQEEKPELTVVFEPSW

The first assay deals with NLRP3 (Homo sapiens, UniProt Q96P20). Nature of the assay: THP-1 cells pyroptosis assay. The assay is classed as cell-based. On the set-up: Seed THP-1 cells (25,000 cells/well) containing 1.0 μg/ml LPS; host or cells: THP-1 cells, LPS-primed, nigericin-stimulated. Conditions: THP-1 cells, 1.0 μg/ml LPS, nigericin 5 μM, pyroptosis read with resazurin; read-out: THP IC50. Here is the method:
The cells were routinely passaged and grown to confluency (˜10^6 cells/ml). On the day of the experiment, THP-1 cells were harvested and resuspended into RPMI medium (without FBS). The cells were then counted and viability (>90%) checked by Trypan blue (Sigma # T8154). […] To this diluted cell solution was added LPS (Sigma # L4524) to give a 1 μg/ml Final Assay Concentration (FAC). 40 μl of the final preparation was aliquoted into each well of a 96-well plate. The plate thus prepared was used for compound screening. THP-1 Cells Pyroptosis Assay The following method step-by-step assay was followed for compound screening. • 1. […] Add 5 μl nigericin (Sigma # N7143) (FAC 5 μM) to all wells • 5. […] At the end of the incubation period, spin plates at 300×g for 3 mins and remove supernatant • 7. Then add 50 μl of resazurin (Sigma # R7017) (FAC 100 μM resazurin in RPMI medium without FBS) and incubate plates for a further 1-2 hrs at 37° C. and 5% CO2 • 8. […] IC50 data is fitted to a non-linear regression equation (log inhibitor vs response-variable slope 4-parameters) [table]
(Resazurin is reduced to fluorescent resorufin, in cell work by metabolically active cells.)
Consider `O=C(Nc1c2c(cc3c1CCC3)CCC2)NS(=O)(=O)c1cccnn1` [Example 2, N-((1,2,3,5,6,7-Hexahydro-s-indacen-4-yl)carbamoyl)pyridazine-3-sulfonamide, Potassium Salt], for which the IC50 is less than 2 µM.

As for `O=C(Nc1c2c(cc3c1CCC3)CCC2)NS(=O)(=O)c1ncccn1` [Example 3, N-((1,2,3,5,6,7-Hexahydro-s-indacen-4-yl)carbamoyl) pyrimidine-2-sulfonamide, Potassium Salt], the IC50 was less than 1.6 µM.

As for `Cc1ccc(S(=O)(=O)NC(=O)Nc2c3c(cc4c2CCC4)CCC3)nn1` [Example 4, N-((1,2,3,5,6,7-Hexahydro-s-indacen-4-yl)carbamoyl)-6-methylpyridazine-3-sulfonamide, Sodium Salt], the IC50 was less than 10 µM.

With `Cc1ccc(S(=O)(=O)NC(=O)Nc2c(C(C)C)cccc2C(C)C)nn1` [Example 5, N-((2,6-Diisopropylphenyl)carbamoyl)-6-methylpyridazine-3-sulfonamide, Potassium Salt], the IC50 is less than 10 µM.

Regarding `CC(C)c1cccc(C(C)C)c1NC(=O)NS(=O)(=O)c1cnccn1` [Example 6, N-((2,6-Diisopropylphenyl)carbamoyl)pyrazine-2-sulfonamide, Sodium Salt], the IC50 is less than 10 µM.

In the case of `O=C(Nc1c2c(cc3c1CCC3)CCC2)NS(=O)(=O)c1ccc(Cl)nn1` [Example 11, 6-Chloro-N-((1,2,3,5,6,7-hexahydro-s-indacen-4-yl)carbamoyl) pyridazine-3-sulfonamide, Potassium Salt], the IC50 was less than 10 µM.

`COc1cc(S(=O)(=O)NC(=O)Nc2c3c(cc4c2CCC4)CCC3)c(OC)nn1` [Example 12, N-((1,2,3,5,6,7-Hexahydro-s-indacen-4-yl)carbamoyl)-3,6-di methoxypyridazine-4-sulfonamide, potassium salt]: the IC50 is less than 1.2 µM.

Take `CN(C)c1ccc(S(=O)(=O)NC(=O)Nc2c3c(cc4c2CCC4)CCC3)nn1` [Example 13, 6-(Dimethylamino)-N-((1,2,3,5,6,7-hexahydro-s-indacen-4-yl)carbamoyl)pyridazine-3-sulfonamide, potassium salt]: the IC50 was less than 1.6 µM.

As to `O=C(Nc1c2c(cc3c1CCC3)CCC2)NS(=O)(=O)c1nccnc1C(F)F` [Example 14, 3-(Difluoromethyl)-N-((1,2,3,5,6,7-hexahydro-s-indacen-4-yl)carbamoyl)pyrazine-2-sulfonamide, potassium salt], the IC50 was less than 2 µM.

Regarding `COc1ncccc1S(=O)(=O)NC(=O)Nc1c2c(cc3c1CCC3)CCC2` [Example 15, N-((1,2,3,5,6,7-Hexahydro-s-indacen-4-yl)carbamoyl)-2-methoxypyridine-3-sulfonamide, Potassium Salt], the IC50 was less than 1.2 µM.

Regarding `O=C(Nc1c2c(cc3c1CCC3)CCC2)NS(=O)(=O)c1cc(C(F)(F)F)cnn1` [Example 16, N-((1,2,3,5,6,7-Hexahydro-s-indacen-4-yl)carbamoyl)-5-(trifluoromethyl)pyridazine-3-sulfonamide, Potassium Salt], the IC50 is less than 10 µM.

On to `COc1cc(S(=O)(=O)NC(=O)Nc2c3c(cc4c2CCC4)CCC3)ncn1` [Example 19, N-((1,2,3,5,6,7-Hexahydro-s-indacen-4-yl)carbamoyl)-6-methoxypyrimidine-4-sulfonamide, Potassium Salt], for which the IC50 is less than 0.8 µM.

Regarding `NC(=O)c1ccc(S(=O)(=O)NC(=O)Nc2c3c(cc4c2CCC4)CCC3)nn1` [Example 20, 6-(N-((1,2,3,5,6,7-Hexahydro-s-indacen-4-yl)carbamoyl)sulfamoyl) pyridazine-3-carboxamide, potassium salt], the IC50 was less than 10 µM.

In the case of `CN(C)c1cnnc(S(=O)(=O)NC(=O)Nc2c3c(cc4c2CCC4)CCC3)c1` [Example 21, 5-(Dimethylamino)-N-((1,2,3,5,6,7-hexahydro-s-indacen-4-yl)carbamoyl)pyridazine-3-sulfonamide, Potassium Salt], the IC50 was less than 0.8 µM.

For the compound `COc1ccc(S(=O)(=O)NC(=O)Nc2c3c(cc4c2CCC4)CCC3)nn1` [Example 22, N-((1,2,3,5,6,7-Hexahydro-s-indacen-4-yl)carbamoyl)-6-methoxy pyridazine-3-sulfonamide, Potassium Salt], the 50% inhibitory concentration (IC50) was less than 1.6 µM.

For `O=C(Nc1c2c(cc3c1CCC3)CCC2)NS(=O)(=O)c1ccc(=O)[nH]c1` [Example 23, N-((1,2,3,5,6,7-hexahydro-s-indacen-4-yl)carbamoyl)-6-oxo-1,6-dihydropyridine-3-sulfonamide, Potassium Salt], the IC50 was less than 10 µM.

With `N#Cc1nccnc1S(=O)(=O)NC(=O)Nc1c2c(cc3c1CCC3)CCC2` [Example 24, 3-Cyano-N-((1,2,3,5,6,7-hexahydro-s-indacen-4-yl)carbamoyl)pyrazine-2-sulfonamide, Potassium Salt], the IC50 was less than 10 µM.

For `CN(C)CCNc1cnc(S(=O)(=O)NC(=O)Nc2c3c(cc4c2CCC4)CCC3)cn1` [Example 25, 5-((2-(Dimethylamino)ethyl)amino)-N-((1,2,3,5,6,7-hexahydro-s-indacen-4-yl)carbamoyl)pyrazine-2-sulfonamide, potassium Salt], the IC50 was less than 0.8 µM.

On to `CN(C)c1cnc(S(=O)(=O)NC(=O)Nc2c3c(cc4c2CCC4)CCC3)cn1` [Example 26, 5-(Dimethylamino)-N-((1,2,3,5,6,7-hexahydro-s-indacen-4-yl)carbamoyl)pyrazine-2-sulfonamide, Potassium Salt], for which the IC50 is less than 0.8 µM.

On to `O=C(Nc1c2c(cc3c1CCC3)CCC2)NS(=O)(=O)c1cncc(N2CCOCC2)n1` [Example 28, N-((1,2,3,5,6,7-Hexahydro-s-indacen-4-yl)carbamoyl)-6-morpholinopyrazine-2-sulfonamide, Potassium Salt], for which the IC50 is less than 0.8 µM.

For the compound `Cc1nccnc1S(=O)(=O)NC(=O)Nc1c2c(cc3c1CCC3)CCC2` [Example 29, N-((1,2,3,5,6,7-Hexahydro-s-indacen-4-yl)carbamoyl)-3-methylpyrazine-2-sulfonamide, Potassium Salt], the IC50 was less than 10 µM.

Consider `O=C(Nc1c2c(cc3c1CCC3)CCC2)NS(=O)(=O)c1cnc2ccccc2n1` [Example 30, N-((1,2,3,5,6,7-Hexahydro-s-indacen-4-yl)carbamoyl)quinoxaline-2-sulfonamide, Potassium Salt], for which the IC50 was less than 10 µM.

Take `Cc1nn(C)c2ncc(S(=O)(=O)NC(=O)Nc3c4c(cc5c3CCC5)CCC4)cc12` [Example 31, N-((1,2,3,5,6,7-Hexahydro-s-indacen-4-yl)carbamoyl)-1,3-dimethyl-1H-pyrazolo[3,4-b]pyridine-5-sulfonamide, Potassium Salt]: the IC50 was less than 10 µM.

Take `CCOc1ccncc1S(=O)(=O)NC(=O)Nc1c2c(cc3c1CCC3)CCC2` [Example 32, 4-Ethoxy-N-((1,2,3,5,6,7-hexahydro-s-indacen-4-yl)carbamoyl)pyridine-3-sulfonamide, Potassium Salt]: the half-inhibitory concentration (IC50) was less than 10 µM.

With `CC(C)c1cc(F)cc(-c2ccnc(C#N)c2)c1NC(=O)NS(=O)(=O)c1cncc(N(C)C)n1` [Example 34, N-((2-(2-Cyanopyridin-4-yl)-4-fluoro-6-isopropylphenyl)carbamoyl)-6-(dimethylamino)pyrazine-2-sulfonamide], the IC50 was less than 0.8 µM.

For `COc1cc(-c2cc(F)cc(C(C)C)c2NC(=O)NS(=O)(=O)c2cncc(N(C)C)n2)ccn1` [Example 35, 6-(Dimethylamino)-N-((4-fluoro-2-isopropyl-6-(2-methoxypyridin-4-yl)phenyl)carbamoyl)pyrazine-2-sulfonamide], the IC50 was less than 0.8 µM.

For `COc1cc(-c2ccc3c(c2NC(=O)NS(=O)(=O)c2cncc(N(C)C)n2)CCC3)ccn1` [Example 36, 6-(Dimethylamino)-N-((5-(2-methoxypyridin-4-yl)-2,3-dihydro-1H-inden-4-yl)carbamoyl)pyrazine-2-sulfonamide], the IC50 is less than 0.8 µM.

For `COc1cc(-c2cc(F)cc(C(C)C)c2NC(=O)NS(=O)(=O)c2cnc(N(C)C)cn2)ccn1` [Example 39, 5-(Dimethylamino)-N-((4-fluoro-2-isopropyl-6-(2-methoxypyridin-4-yl)phenyl)carbamoyl)pyrazine-2-sulfonamide], the IC50 is less than 0.8 µM.

Regarding `CN(C)c1cnc(S(=O)(=O)NC(=O)Nc2c(-c3ccncc3)cc(F)c3c2CCC3)cn1` [Example 41, 5-(Dimethylamino)-N-((7-fluoro-5-(pyridin-4-yl)-2,3-dihydro-1H-inden-4-yl)carbamoyl)pyrazine-2-sulfonamide], the IC50 was less than 0.8 µM.

As for `COc1cc(-c2cc(F)cc(C(C)C)c2NC(=O)NS(=O)(=O)c2nccnc2C(F)F)ccn1` [Example 43, 3-(Difluoromethyl)-N-((4-fluoro-2-isopropyl-6-(2-methoxypyridin-4-yl)phenyl)carbamoyl)pyrazine-2-sulfonamide], the IC50 is less than 10 µM.

As for `COc1cc(-c2ccc3c(c2NC(=O)NS(=O)(=O)c2nccnc2C(F)F)CCC3)ccn1` [Example 44, 3-(Difluoromethyl)-N-((5-(2-methoxypyridin-4-yl)-2,3-dihydro-1H-inden-4-yl)carbamoyl)pyrazine-2-sulfonamide], the IC50 is less than 1.2 µM.

Staying with this assay, now noted: THP-1 pyroptosis assay, bound stated; read-out: IC50 value.
For the compound `O=C(Nc1c2c(cc3c1CCC3)CCC2)NS(=O)(=O)c1ncccn1` [Example 3, N-((1,2,3,5,6,7-Hexahydro-s-indacen-4-yl)carbamoyl) pyrimidine-2-sulfonamide, Potassium Salt], the IC50 was greater than 1.2 µM.

A word on the IC50: it is the point on the concentration scale where inhibition reaches its midpoint.
